Experimental data as given in article PMC11249646, “Small-Molecule Disruptors of the Interaction between Calcium- and Integrin-Binding Protein 1 and Integrin αIIbβ3 as Novel Antiplatelet Agents” (ACS Pharmacology & Translational Science, 2024).
Where two headings read alike, the source gives them in different places.

What was measured:
[1] = target: T1, CIB1 and αIIb interaction (CIB1-GST : F-αIIb peptide) (Homo sapiens, UniProt Q99828); test: FP assay, 1536-well qHTS format (primary and confirmatory screen); format: binding; details: for CONFIRMATORY SCREEN Curve Class / Curve Class (confirmatory screen): qHTS curve class
T1 construct: made in house; host or cells: BL-21 plus RIL cells (E. coli)
T1 sequence (Q99828 1-191): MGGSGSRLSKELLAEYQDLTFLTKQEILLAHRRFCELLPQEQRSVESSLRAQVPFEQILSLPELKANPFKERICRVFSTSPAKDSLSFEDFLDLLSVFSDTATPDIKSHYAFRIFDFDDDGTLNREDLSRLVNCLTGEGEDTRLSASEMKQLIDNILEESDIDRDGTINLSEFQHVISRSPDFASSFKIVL

[2] = target: T2, GST-CIB1 : F-scrambled peptide (Homo sapiens, UniProt Q99828); test: FP scrambled-peptide counter screen, 1536-well format; format: binding; details: for COUNTERSCREEN Curve Class / Curve Class (counterscreen): qHTS curve class; for IC50: read-out: IC50 [μM] (counterscreen)
T2 construct: made in house; host or cells: BL-21 plus RIL cells (E. coli)
T2 sequence (Q99828 1-191): T1 sequence (Q99828 1-191)

[3] = Table S3, confirmatory screen, a negative sign marks inhibitory curves
[4] = Table S3, confirmatory screen, negative = inhibition
[5] = qHTS primary screen hits, Table S2, negative = inhibition
[6] = qHTS primary screen hits, Table S2, negative sign = inhibitory curve, several classes where COUNT > 1
[7] = qHTS primary screen hits, Table S2, read-out: IC50
[8] = Table S3, counterscreen, a negative sign marks inhibitory curves
[9] = Table S3, counterscreen, negative = inhibition
[10] = qHTS FP screen hits, Table S2, negative = inhibition
[11] = qHTS FP screen hits, Table S2, one class per curve where COUNT > 1, negative sign = inhibitory curve
[12] = qHTS FP screen hits, Table S2, read-out: IC50
[13] = confirmatory screen, negative sign = inhibitory curve
[14] = confirmatory screen, read-out: IC50 [μM] (confirmatory screen)
[15] = counterscreen, negative sign = inhibitory curve
[16] = Table S3, confirmatory screen, YES/NO call
[17] = Table S3, confirmatory screen, read-out: IC50 [μM] (confirmatory screen)
[18] = qHTS primary screen hits, Table S2, negative sign = inhibitory curve

SMILES	Curve Class (confirmatory screen) [1, 3]	Efficacy (%) (confirmatory screen) [1, 4]	Efficacy (%) [1, 5] [%]	IC50 [1, 7] [µM]	Curve Class (counterscreen) [2, 8]	Efficacy (%) (counterscreen) [2, 9]	Efficacy (%) [1, 10] [%]	Curve Class [1, 11]	IC50 [1, 12] [µM]	Efficacy (%) (confirmatory screen) ([1]; confirmatory screen)	Confirm? (confirmatory screen) ([1]; confirmatory screen, YES/NO)	Curve Class (confirmatory screen) [1, 13]	IC50 [1, 14] [µM]	Efficacy (%) (counterscreen) ([2]; counterscreen)	Curve Class (counterscreen) [2, 15]	IC50 ([2]; counterscreen) [µM]	IC50 ([2]; Table S3, counterscreen) [µM]	other results
CC(=O)NC(c1cccs1)c1cc(Br)c2cccnc2c1O (centres unmarked) [NCGC00183685-02]	–	–	–	–	–	–	–	–	–	–	–	–	–	–	–	–	–	CONFIRMATORY SCREEN Efficacy (%) ([1]; confirmatory screen): -36%; CONFIRMATORY SCREEN Curve Class ([1]; confirmatory screen): 4; COUNTERSCREEN Efficacy (%) ([2]; counterscreen): -11%; COUNTERSCREEN Curve Class ([2]; counterscreen): 4
COc1ccc(-n2ncc3c2CCCC3NC(=O)c2ccccc2Cl)cc1.O=C(O)C(F)(F)F (centres unmarked) [NCGC00273443-01]	4	-11	-29	25.1	4	0	–	–	–	–	–	–	–	–	–	–	–	Curve Class [1, 6]: -2.4
O=C1c2cccc(O)c2C(=O)c2c(O)cc(CO)cc21 [NCGC00163510-03]	4	-18	–	–	4	-8	-33	-1.2	9.6	–	–	–	–	–	–	–	–	–
Cc1ccc(C)n1-c1sccc1C(=O)O [NCGC00253437-01]	–	–	-59	44.7	–	–	–	–	–	-97	YES	-1.1	22.4	-36	-1.2	7.9	–	Curve Class [1, 6]: -2.2; Confirm? (counterscreen) ([2]; counterscreen, YES/NO): YES
C=CCNc1oc(-c2ccc(Cl)cc2)nc1C#N.O=C(O)C(F)(F)F [NCGC00183412-01]	–	–	–	–	–	–	-54	-2.2	50.1	-72	YES	-2.2	31.6	-30	-1.2	12.6	–	–
O=C(O)c1csc(-n2nc(-c3ccc(F)c(F)c3)c3cccnc32)n1 [NCGC00356667-01]	4	-16	–	–	3	64	-32	-1.2	3.5	–	–	–	–	–	–	–	89.1	–
Cc1cc(NS(=O)(=O)c2ccc(NC(=O)Cc3cccc4ccccc34)cc2)no1.O=C(O)C(F)(F)F [NCGC00244880-01]	-2.2	-48	-21	17.8	-2.2	-64	–	–	–	–	–	–	–	–	–	–	20	Confirm? (confirmatory screen) [1, 16]: YES; IC50 [1, 17]: 31.6 µM; Curve Class [1, 6]: -1.4
O=C(O)Cc1ccc(CCNS(=O)(=O)c2ccc(Cl)cc2)cc1 [NCGC00165787-03]	–	–	–	–	–	–	-61	-2.2	79.4	–	–	–	–	–	–	–	–	CONFIRMATORY SCREEN Efficacy (%) ([1]; confirmatory screen): 14%; CONFIRMATORY SCREEN Curve Class ([1]; confirmatory screen): 4; COUNTERSCREEN Efficacy (%) ([2]; counterscreen): 0%; COUNTERSCREEN Curve Class ([2]; counterscreen): 4
COc1ccc2c(c[n+](C)c3c4cc5c(cc4ccc23)OCO5)c1OC.[Cl-] [NCGC00015225-03]	–	–	–	–	–	–	–	–	–	-56	YES	-1.4	11.2	-55	-2.2	28.2	–	–
COc1ccc2nc3[nH]nc(C)c3c(NCCOCCO)c2c1 [NCGC00384193-04]	-2.2	-47	–	–	-2.2	-75	-75	-2.2	50.1	–	–	–	–	–	–	–	89.1	Confirm? (confirmatory screen) [1, 16]: YES
CCOc1ccc(CCNC(C)=O)cc1OCC.O=C(O)C(F)(F)F [NCGC00241413-01]	–	–	–	–	–	–	-45	-2.2	39.8	–	–	–	–	–	–	–	–	CONFIRMATORY SCREEN Efficacy (%) ([1]; confirmatory screen): -11%; CONFIRMATORY SCREEN Curve Class ([1]; confirmatory screen): 4; COUNTERSCREEN Efficacy (%) ([2]; counterscreen): 0%; COUNTERSCREEN Curve Class ([2]; counterscreen): 4
O=C(O)C(F)(F)F.O=S(=O)(NCc1nccs1)c1ccc(Nc2nc(-c3ccccc3)cs2)cc1 [NCGC00262383-01]	-2.2	-80	–	–	-2.2	-83	-60	-2.2	50.1	–	–	–	–	–	–	–	50.1	Confirm? (confirmatory screen) [1, 16]: YES
COc1nc2ccc(Br)cc2cc1[C@@H](c1ccccc1)[C@@](O)(CCN(C)C)c1cccc2ccccc12 [NCGC00348215-04]	–	–	–	–	–	–	-64	-2.2	50.1	-94	YES	-2.2	89.1	-83	-2.2	89.1	–	–
O=C(O)C(F)(F)F.O=C(c1ccc(-c2cc(O)c3ncccc3c2)cc1)N1CCNCC1 [NCGC00183806-01]	4	-11	-40	39.8	-1.2	-59	–	–	–	–	–	–	–	–	–	–	35.5	Curve Class [1, 18]: -2.2; Confirm? (counterscreen) ([2]; Table S3, counterscreen, YES/NO call): YES
COc1cccc2nc(-c3cccs3)nc(NN3C(=O)C=C(C)C3=O)c12 [NCGC00161703-02]	–	–	-24	3	–	–	–	–	–	-63	YES	-1.4	8.9	-30	-1.4	17.8	–	Curve Class [1, 18]: -1.4
O=C(O)c1cc(/N=N/c2ccc(S(=O)(=O)Nc3ccccn3)cc2)ccc1O [NCGC00090903-09]	-1.2	-64	–	–	-2.2	-61	–	–	–	–	–	–	–	–	–	–	39.8	Confirm? (confirmatory screen) [1, 16]: YES; IC50 [1, 17]: 22.4 µM
Cc1cccc(C(=O)c2no[n+]([O-])c2C(=O)c2cccc(C)c2)c1.O=C(O)C(F)(F)F [NCGC00351156-01]	–	–	-52	7.9	–	–	–	–	–	-73	YES	-2.2	31.6	-65	-1.2	10	–	Curve Class [1, 6]: -1.2
CC(C)(O)CCc1ccc(OCc2cc(-c3cccc(OC(F)F)c3)c3ncccc3c2)cc1 [NCGC00249759-02]	4	-25	-59	24.1	4	-28	–	–	–	–	–	–	–	–	–	–	–	Curve Class [1, 6]: -2.2
